This is an account of results in patent US11400081B2, “Compounds” (The University of Sheffield, priority 2017, dated 2022).

Structures are written as SMILES. Structures can show the parent of a compound that is named as a salt.

T1 sequence (Q16602 23-461): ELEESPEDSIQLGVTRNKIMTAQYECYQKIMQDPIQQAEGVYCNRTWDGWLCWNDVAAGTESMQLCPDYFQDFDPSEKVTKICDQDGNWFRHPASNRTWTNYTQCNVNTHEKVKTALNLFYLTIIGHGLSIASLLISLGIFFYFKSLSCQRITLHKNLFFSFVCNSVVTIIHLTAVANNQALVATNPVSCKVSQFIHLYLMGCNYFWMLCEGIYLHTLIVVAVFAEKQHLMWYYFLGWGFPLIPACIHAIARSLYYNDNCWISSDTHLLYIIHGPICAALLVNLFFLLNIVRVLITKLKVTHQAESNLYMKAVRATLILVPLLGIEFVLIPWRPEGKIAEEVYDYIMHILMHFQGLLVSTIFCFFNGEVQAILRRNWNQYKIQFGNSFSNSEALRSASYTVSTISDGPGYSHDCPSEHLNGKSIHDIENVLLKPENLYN
T1 sequence (O60896 24-148): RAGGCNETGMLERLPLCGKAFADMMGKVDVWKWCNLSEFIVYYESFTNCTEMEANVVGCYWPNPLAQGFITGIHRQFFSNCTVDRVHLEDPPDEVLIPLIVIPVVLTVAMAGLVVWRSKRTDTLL

This assay has as its target T1, AM2 receptor (CALCRL+RAMP3) (Homo sapiens, UniProt O60896+Q16602).
T1 construct: host or cells: 1321N1
The experiment in a line: AM2 receptor inhibition, LANCE TR-FRET cAMP agonist-antagonist competition assay. In kind it is cell-based. Conditions: inhibition of AM induced cAMP activation; 1321N1 cells transfected with CALCRL+RAMP3; read-out: AM2 pIC50 (converted).
Take `CNCc1ccccc1CN(CC(=O)Nc1ccc2c(c1)CC1(C2)C(=O)Nc2ncccc21)C(=O)C12CC(N)(C1)C2` (centres unmarked) [Example 77, 3-amino-N-[[2-(methylaminomethyl)phenyl]methyl]-N-[2-oxo-2-[(2-oxospiro[1H-pyrrolo[2,3-b]pyridine-3,2′-indane]-5′-yl)amino]ethyl]bicyclo[1.1.1]pentane-1-carboxamide bis(2,2,2-trifluoroacetate)]: the IC50 is 0.0447 µM. Turning to `CNCc1ccccc1CN(CC(=O)Nc1ccc2c(c1)CC1(C2)C(=O)Nc2ncccc21)C(=O)C12CC(C1)C2` (centres unmarked) [Example 78, N-(2-((methylamino)methyl)benzyl)-N-(2-oxo-2-((2′-oxo-1,1′,2′,3-tetrahydrospiro[indene-2,3′-pyrrolo[2,3-b]pyridin]-5-yl)amino)ethyl)bicyclo[1.1.1]pentane-1-carboxamide 2,2,2-trifluoroacetate], the IC50 is 0.0055 µM.

Turning to `CNCc1ccccc1CN(CC(=O)Nc1ccc2c(c1)CC1(C2)C(=O)Nc2ncccc21)C(=O)C1CCN(C(C)=O)CC1` (centres unmarked) [Example 79, 1-Acetyl-N-(2-((methylamino)methyl)benzyl)-N-(2-oxo-2-((2′-oxo-1,1′,2′,3-tetrahydrospiro[indene-2,3′-pyrrolo[2,3-b]pyridin]-5-yl)amino)ethyl)piperidine-4-carboxamide], the IC50 is 0.0224 µM.

With `CNCc1ccccc1CN(CC(=O)Nc1ccc2c(c1)CC1(C2)C(=O)Nc2ncccc21)C(=O)C1CCOC1` (centres unmarked) [Example 80, N-(2-((Methylamino)methyl)benzyl)-N-(2-oxo-2-((2′-oxo-1,1′,2′,3-tetrahydrospiro[indene-2,3′-pyrrolo[2,3-b]pyridin]-5-yl)amino)ethyl)tetrahydrofuran-3-carboxamide], the IC50 is 0.0148 µM. Regarding `CNCc1ccccc1CN(CC(=O)Nc1ccc2c(c1)CC1(C2)C(=O)Nc2ncccc21)C(=O)N1CCCC1` (centres unmarked) [Example 81, N-(2-((Methylamino)methyl)benzyl)-N-(2-oxo-2-((2′-oxo-1,1′,2′,3-tetrahydrospiro[indene-2,3′-pyrrolo[2,3-b]pyridin]-5-yl)amino)ethyl)pyrrolidine-1-carboxamide], the IC50 was 0.00741 µM. For `CNCc1ccccc1CN(CC(=O)Nc1ccc2c(c1)CC1(C2)C(=O)Nc2ncccc21)C(=O)N(C)OC` (centres unmarked) [Example 82, 2-(3-Methoxy-3-methyl-1-(2-((methylamino)methyl)benzyl)ureido)-N-(2′-oxo-1,1′,2′,3-tetrahydrospiro[indene-2,3′-pyrrolo[2,3-b]pyridin]-5-yl)acetamide] the value was 0.263 µM; for `CNCc1ccccc1CN(CC(=O)Nc1ccc2c(c1)CC1(C2)C(=O)Nc2ncccc21)C(=O)NC1CCCC1` (centres unmarked) [Example 83, 2-(3-Cyclopentyl-1-(2-((methylamino)methyl)benzyl)ureido)-N-(2′-oxo-1,1′,2′,3-tetrahydrospiro[indene-2,3′-pyrrolo[2,3-b]pyridin]-5-yl)acetamide], 0.0427 µM; for `CNCc1ccccc1CN(CC(=O)Nc1ccc2c(c1)CC1(C2)C(=O)Nc2ncccc21)C(=O)NC(C)C` (centres unmarked) [Example 84, 2-(3-Isopropyl-1-(2-((methylamino)methyl)benzyl)ureido)-N-(2′-oxo-1,1′,2′,3-tetrahydrospiro[indene-2,3′-pyrrolo[2,3-b]pyridin]-5-yl)acetamide], 0.0525 µM.

For `CNCc1ccccc1CN(CC(=O)Nc1ccc2c(c1)CC1(C2)C(=O)Nc2ncccc21)C(=O)N(C)C` (centres unmarked) [Example 85, 2-(3,3-Dimethyl-1-(2-((methylamino)methyl)benzyl)ureido)-N-(2′-oxo-1,1′,2′,3-tetrahydrospiro[indene-2,3′-pyrrolo[2,3-b]pyridin]-5-yl)acetamide], the IC50 is 0.234 µM. On to `CNCc1ccccc1CN(CC(=O)Nc1ccc2c(c1)CC1(C2)C(=O)Nc2ncccc21)C(=O)N1CCCCC1` (centres unmarked) [Example 87, N-(2-((Methylamino)methyl)benzyl)-N-(2-oxo-2-((2′-oxo-1,1′,2′,3-tetrahydrospiro[indene-2,3′-pyrrolo[2,3-b]pyridin]-5-yl)amino)ethyl)piperidine-1-carboxamide], for which the IC50 is 0.0437 µM. For `CNCc1ccccc1CN(CC(=O)Nc1ccc2c(c1)CC1(C2)C(=O)Nc2ncccc21)C(=O)C1CCNCC1` (centres unmarked) [Example 88, N-(2-((Methylamino)methyl)benzyl)-N-(2-oxo-2-((2′-oxo-1,1′,2′,3-tetrahydrospiro[indene-2,3′-pyrrolo[2,3-b]pyridin]-5-yl)amino)ethyl)piperidine-4-carboxamide] the value was 0.148 µM; for `CNCc1ccccc1CN(CC(=O)Nc1ccc2c(c1)CC1(C2)C(=O)Nc2ncccc21)C(=O)N1CCC2(CCNCC2)CC1` (centres unmarked) [Example 89, N-(2-((Methylamino)methyl)benzyl)-N-(2-oxo-2-((2′-oxo-1,1′,2′,3-tetrahydrospiro[indene-2,3′-pyrrolo[2,3-b]pyridin]-5-yl)amino)ethyl)-3,9-diazaspiro[5.5]undecane-3-carboxamide], 0.0871 µM; for `CNCc1ccccc1CN(CC(=O)Nc1ccc2c(c1)CC1(C2)C(=O)Nc2ncccc21)C(=O)N1CCC2(CCNCC2)C1` (centres unmarked) [Example 90, N-(2-((Methylamino)methyl)benzyl)-N-(2-oxo-2-((2′-oxo-1,1′,2′,3-tetrahydrospiro[indene-2,3′-pyrrolo[2,3-b]pyridin]-5-yl)amino)ethyl)-2,8-diazaspiro[4.5]decane-2-carboxamide], 0.501 µM. As for `CNCc1ccccc1CN(CC(=O)Nc1ccc2c(c1)CC1(C2)C(=O)Nc2ncccc21)C(=O)C(C)(C)c1ccc(CN2CCNCC2)cc1` (centres unmarked) [Example 91, 2-Methyl-N-(2-((methylamino)methyl)benzyl)-N-(2-oxo-2-((2′-oxo-1,1′,2′,3-tetrahydrospiro[indene-2,3′-pyrrolo[2,3-b]pyridin]-5-yl)amino)ethyl)-2-(4-(piperazin-1-ylmethyl)phenyl)propanamide], the IC50 is 0.024 µM.

In the case of `CNCc1ccccc1CN(CC(=O)Nc1ccc2c(c1)C[C@@]1(C2)C(=O)Nc2ncccc21)C(=O)C12CC3CC(CC(C3)C1)C2` [Example 92, N-[[2-(methylaminomethyl)phenyl]methyl]-N-[2-oxo-2-[[(3R)-2-oxospiro[1H-pyrrolo[2,3-b]pyridine-3,2′-indane]-5′-yl]amino]ethyl]adamantane-1-carboxamide 2,2,2-trifluoroacetate], the IC50 was 0.0794 µM. In the case of `CNCc1ccccc1CN(CC(=O)Nc1ccc2c(c1)C[C@@]1(C2)C(=O)Nc2ncccc21)C(=O)C1(C(F)(F)F)CCCC1` [Example 94, N-[[2-(methylaminomethyl)phenyl]methyl]-N-[2-oxo-2-[[(3R)-2-oxospiro[1H-pyrrolo[2,3-b]pyridine-3,2′-indane]-5′-yl]amino]ethyl]-1-(trifluoromethyl)cyclopentanecarboxamide 2,2,2-trifluoroacetate], the IC50 was 0.0178 µM. With `CNCc1ccccc1CN(CC(=O)Nc1ccc2c(c1)C[C@@]1(C2)C(=O)Nc2ncccc21)C(=O)C(C)(C)F` [Example 95, (R)-2-Fluoro-2-methyl-N-(2-((methylamino)methyl)benzyl)-N-(2-oxo-2-((2′-oxo-1,1′,2′,3-tetrahydrospiro[indene-2,3′-pyrrolo[2,3-b]pyridin]-5-yl)amino)ethyl)propanamide 2,2,2-trifluoroacetate], the IC50 is 0.0288 µM. For the compound `CNCc1ccccc1CN(CC(=O)Nc1ccc2c(c1)C[C@@]1(C2)C(=O)Nc2ncccc21)C(=O)C(C)(C)C(F)(F)F` [Example 96, 3,3,3-trifluoro-2,2-dimethyl-N-[[2-(methylaminomethyl)phenyl]methyl]-N-[2-oxo-2-[[(3R)-2-oxospiro[1H-pyrrolo[2,3-b]pyridine-3,2′-indane]-5′-yl]amino]ethyl]propanamide 2,2,2-trifluoroacetate], the IC50 is 0.049 µM.

As for `CNCc1ccccc1CN(CC(=O)Nc1ccc2c(c1)C[C@@]1(C2)C(=O)Nc2ncccc21)C(=O)C(C)(C)CC(F)(F)F` [Example 97, 4,4,4-Trifluoro-2,2-dimethyl-N-[[2-(methylaminomethyl)phenyl]methyl]-N-[2-oxo-2-[[(3R)-2-oxospiro[1H-pyrrolo[2,3-b]pyridine-3,2′-indane]-5′-yl]amino]ethyl]butanamide 2,2,2-trifluoroacetate], the IC50 was 0.0603 µM.

Take `CCC1(C(=O)N(CC(=O)Nc2ccc3c(c2)C[C@@]2(C3)C(=O)Nc3ncccc32)Cc2ccccc2CNC)CCOCC1` [Example 98, 4-Ethyl-N-[[2-(methylaminomethyl)phenyl]methyl]-N-[2-oxo-2-[[(3R)-2-oxospiro[1H-pyrrolo [2,3-b]pyridine-3,2′-indane]-5′-yl]amino]ethyl]tetrahydropyran-4-carboxamide 2,2,2 trifluoroacetate]: the IC50 was 0.0214 µM. Regarding `NCc1ccccc1CN(CC(=O)Nc1ccc2c(c1)C[C@@]1(C2)C(=O)Nc2ncccc21)C(=O)C1(C(F)(F)F)CC1` [Example 99, N-[[2-(Aminomethyl)phenyl]methyl]-N-[2-oxo-2-[(2-oxospiro[1H-pyrrolo[2,3-b]pyridine-3,2′-indane]-5′-yl)amino]ethyl]-1-(trifluoromethyl)cyclopropylcarboxamide 2,2,2-trifluoroacetate], the IC50 is 0.245 µM.

Take `CNCc1ccccc1CN(CC(=O)Nc1ccc2c(c1)C[C@@]1(C2)C(=O)Nc2ncccc21)C(=O)C12CC(NC(C)=O)(C1)C2` [Example 100, 3-Acetamido-N-[[2-(methylaminomethyl)phenyl]methyl]-N-[2-oxo-2-[[(3R)-2-oxospiro[1H-pyrrolo[2,3-b]pyridine-3,2′-indane]-5′-yl]amino]ethyl]bicyclo[1.1.1]pentane-1-carboxamide 2,2,2-trifluoroacetate]: the IC50 is 0.309 µM. On to `CC(C)(C)C(=O)N(CC(=O)Nc1ccc2c(c1)C[C@@]1(C2)C(=O)Nc2ncccc21)C1CNCc2ccccc21` (some centres unmarked) [Example 101, 2,2-Dimethyl-N-[2-oxo-2-[(2-oxospiro[1H-pyrrolo[2,3-b]pyridine-3,2′-indane]-5′-yl)amino]ethyl]-N-(1,2,3,4-tetrahydroisoquinolin-4-yl)propanamide 2,2,2-trifluoroacetate], for which the IC50 is 0.0398 µM.
